# Reference: ChEMBL document CHEMBL1201862, “PubChem BioAssay data set” (2004)
# Activity calls are given as the source filed them.
# How the values were obtained:
# Cytochrome P450 1A2 = target: T1, Cytochrome P450 1A2 (Homo sapiens, UniProt P05177);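 further: PubChem cytochrome P450 panel assay, CYP1A2 panel member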
# T1 sequence (P05177 whole entry): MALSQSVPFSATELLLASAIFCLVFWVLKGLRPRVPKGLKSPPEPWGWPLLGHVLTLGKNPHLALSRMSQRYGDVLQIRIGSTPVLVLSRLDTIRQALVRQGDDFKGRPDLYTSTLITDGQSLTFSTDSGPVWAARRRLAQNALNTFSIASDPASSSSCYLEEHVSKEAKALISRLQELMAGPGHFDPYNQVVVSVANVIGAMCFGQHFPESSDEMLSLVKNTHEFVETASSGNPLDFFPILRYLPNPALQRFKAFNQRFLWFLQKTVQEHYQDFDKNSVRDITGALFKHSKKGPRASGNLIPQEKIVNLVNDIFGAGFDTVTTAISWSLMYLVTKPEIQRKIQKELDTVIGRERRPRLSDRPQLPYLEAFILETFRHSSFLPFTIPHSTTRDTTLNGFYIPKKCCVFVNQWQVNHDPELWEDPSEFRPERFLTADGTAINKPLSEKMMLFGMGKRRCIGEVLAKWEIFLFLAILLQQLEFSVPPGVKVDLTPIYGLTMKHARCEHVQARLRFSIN
# Cytochrome P450 2D6 = Cytochrome P450 2D6 (Homo sapiens, UniProt P10635);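 further: CYP2D6 member of a cytochrome P450 panel assay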
# Chain of Cytochrome P450 2D6 (P10635 whole entry): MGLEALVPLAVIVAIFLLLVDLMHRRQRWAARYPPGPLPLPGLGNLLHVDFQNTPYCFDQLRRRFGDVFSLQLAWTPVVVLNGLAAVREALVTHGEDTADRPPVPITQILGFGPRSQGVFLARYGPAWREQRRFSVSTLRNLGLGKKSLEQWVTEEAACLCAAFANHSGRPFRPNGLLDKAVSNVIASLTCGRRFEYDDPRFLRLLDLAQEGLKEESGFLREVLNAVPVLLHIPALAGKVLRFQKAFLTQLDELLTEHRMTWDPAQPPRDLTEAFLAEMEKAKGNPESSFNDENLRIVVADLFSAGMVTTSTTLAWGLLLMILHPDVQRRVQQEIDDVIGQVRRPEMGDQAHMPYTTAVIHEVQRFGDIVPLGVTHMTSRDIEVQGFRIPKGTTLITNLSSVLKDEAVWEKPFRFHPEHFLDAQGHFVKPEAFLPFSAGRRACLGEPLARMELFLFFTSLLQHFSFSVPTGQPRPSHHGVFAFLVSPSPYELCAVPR
# Cytochrome P450 3A4 [1] = target: T2, Cytochrome P450 3A4 (Homo sapiens, UniProt P08684);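 further: CYP3A4 tested as one member of a cytochrome P450 panel screen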
# T2 sequence (P08684 whole entry): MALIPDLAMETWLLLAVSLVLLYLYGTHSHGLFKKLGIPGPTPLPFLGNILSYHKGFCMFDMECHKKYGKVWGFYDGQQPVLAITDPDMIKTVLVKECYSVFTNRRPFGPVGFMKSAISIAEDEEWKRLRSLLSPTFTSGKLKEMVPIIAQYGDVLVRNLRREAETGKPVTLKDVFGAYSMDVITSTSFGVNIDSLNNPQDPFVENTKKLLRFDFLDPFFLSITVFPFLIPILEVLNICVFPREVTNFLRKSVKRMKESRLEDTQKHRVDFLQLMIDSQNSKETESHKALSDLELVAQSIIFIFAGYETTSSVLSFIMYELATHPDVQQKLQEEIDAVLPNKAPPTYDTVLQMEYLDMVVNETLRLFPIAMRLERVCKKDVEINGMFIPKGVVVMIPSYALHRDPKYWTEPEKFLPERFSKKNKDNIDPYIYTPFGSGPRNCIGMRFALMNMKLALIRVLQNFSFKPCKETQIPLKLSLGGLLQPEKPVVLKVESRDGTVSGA
# [2] = Luminescence Cell-Based Dose Retest to Confirm Inhibitors of Cancer Stem Cells. [Related pubchem assays (depositor defined):AID2717, AID2721]; format: functional; settings: Homo sapiens
# [3] = viability loss of HMLE_sh_eGFP cells – cell-based, luminescence, counter-screen for HMLE_sh_ECad selective toxicity project, dose response (AID 463074); format: functional, Homo sapiens;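 further: HMLE human mammary epithelial cells expressing control shRNA against eGFP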
# HEK293 [4] = assay: inhibition of NOD1-driven NF-kB reporter – cell-based, luminescence, uHTS, primary screen (AID 1578); format: functional; settings: Homo sapiens
# [5] = Luminescence Cell-Based Dose Confirmation HTS to Identify Activators of 5'UTR Stem-Loop Driven Alpha-Synuclein mRNA Translation in H4 Neuroglioblastoma Cells. [Related pubchem assays: 1829 (Project Summary), 1814 (Primary HTS)]; format: functional
# [6] = Luminescence Cell-Based Dose Response HTS to Identify Activators of Luciferase Translation or Activity in H4 […] Cells. [Related pubchem assays: 1829 (Project Summary), 1814 (Primary HTS)]; format: functional
# HEK293 [7] = assay: cells; format: functional, cell-based; settings: Homo sapiens
# H4 = assay: Luminescence Cell-Based Dose Response HTS to Identify Activators of 5'UTR Stem-Loop Driven Prion Protein mRNA Translation in H4 Neuroglioblastoma Cells. [Related pubchem assays: 1829 (Project Summary), 1814 (Primary HTS)]; format: functional; settings: Homo sapiens
# HEK293 [8] = assay: cells; format: functional, cell-based; settings: Homo sapiens; remark: listed apart in the source
# HEK293 [9] = assay: NOD2 signaling inhibitors in MDP-stimulated cells, cell-based, uHTS, luminescence (AID 2001); format: functional; settings: Homo sapiens
# [10] = luciferase reporter signal suppression in cells – H4 neuroglioma cells, luminescence, dose response (AID 1990); format: functional, cell-based
# BJ [11] = assay: BJ-TERT fibroblast viability loss – cell-based, RAS-independent, luminescence, dose response (AID 1933); format: functional; settings: Homo sapiens
# [12] = Luminescence Cell-Based Dose Response HTS to Identify Inhibitors of 5'UTR Stem-Loop Driven Prion Protein mRNA Translation in H4 Neuroglioblastoma Cells. [Related pubchem assays: 1827 (Project Summary), 1813 (Primary HTS)]; format: functional
# [13] = alpha-synuclein stem-loop luciferase translation blockers – H4 neuroglioma cells, luminescence, confirmation (AID 1988); format: functional, cell-based
# BJ [14] = assay: cells; format: functional, cell-based; settings: Homo sapiens
# BJ [15] = assay: BJ-TERT-LT-ST fibroblast viability loss – cell-based, RAS-independent, luminescence, dose response (AID 1935); format: functional; settings: Homo sapiens;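 further: BJ fibroblasts immortalized with TERT plus LT and ST oncogenes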
# [16] = DRD fibroblast viability loss – cell-based, non-viral oncogenic, luminescence, dose response (AID 1934); format: functional; settings: Homo sapiens
# [17] = HEK-293T viability loss after treatment – luminescence, T-cell screen hits, cytotoxicity control for TCR NF-kB inhibitor project, dose response (AID 489026); format: functional, cell-based;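 further: cells exposed to compound about 14 hours before the viability readout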
# [18] = target: Peroxisome proliferator-activated receptor gamma/Nuclear receptor coactivator 1 (Homo sapiens, UniProt P37231); assay: (§1) TR-FRET dose response biochemical High Throughput Screening assay for agonists of the steroid receptor coactivator 1 (SRC-1) recruitment by the peroxisome proliferator-activated receptor gamma (PPAR gamma): non-selective agonists. [Related pubchem assays (depositor defined):AID1300, AID1808, AID504735, AID631]; format: protein assay
# [19] = target: Peroxisome proliferator-activated receptor gamma/Nuclear receptor coactivator 3 (Homo sapiens, UniProt P37231); assay: as §1, with “3 (SRC-3)” for “1 (SRC-1)”, “assays: 1301 (Confirmation screen.), 1048 (Primary screen.)]” for “assays (depositor defined):AID1300, AID1808, AID504735, AID631]”; format: functional
# Chain of Peroxisome proliferator-activated receptor gamma/Nuclear receptor coactivator 3 (P37231 whole entry): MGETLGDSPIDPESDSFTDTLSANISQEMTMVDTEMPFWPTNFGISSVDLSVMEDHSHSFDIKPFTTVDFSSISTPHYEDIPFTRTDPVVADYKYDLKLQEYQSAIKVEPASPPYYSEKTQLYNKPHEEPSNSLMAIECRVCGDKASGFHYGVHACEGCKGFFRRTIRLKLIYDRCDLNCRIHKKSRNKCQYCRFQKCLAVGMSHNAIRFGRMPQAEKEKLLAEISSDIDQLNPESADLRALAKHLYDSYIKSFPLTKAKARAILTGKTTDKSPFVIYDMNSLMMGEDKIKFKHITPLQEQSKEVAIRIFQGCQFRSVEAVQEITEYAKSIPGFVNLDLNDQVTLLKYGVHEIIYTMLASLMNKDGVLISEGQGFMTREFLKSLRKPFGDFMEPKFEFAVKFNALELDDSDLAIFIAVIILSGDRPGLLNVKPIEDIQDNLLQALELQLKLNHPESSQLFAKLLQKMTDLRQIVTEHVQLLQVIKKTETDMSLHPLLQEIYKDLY
# Chain of Peroxisome proliferator-activated receptor gamma/Nuclear receptor coactivator 3 (Q9Y6Q9 whole entry, further chain): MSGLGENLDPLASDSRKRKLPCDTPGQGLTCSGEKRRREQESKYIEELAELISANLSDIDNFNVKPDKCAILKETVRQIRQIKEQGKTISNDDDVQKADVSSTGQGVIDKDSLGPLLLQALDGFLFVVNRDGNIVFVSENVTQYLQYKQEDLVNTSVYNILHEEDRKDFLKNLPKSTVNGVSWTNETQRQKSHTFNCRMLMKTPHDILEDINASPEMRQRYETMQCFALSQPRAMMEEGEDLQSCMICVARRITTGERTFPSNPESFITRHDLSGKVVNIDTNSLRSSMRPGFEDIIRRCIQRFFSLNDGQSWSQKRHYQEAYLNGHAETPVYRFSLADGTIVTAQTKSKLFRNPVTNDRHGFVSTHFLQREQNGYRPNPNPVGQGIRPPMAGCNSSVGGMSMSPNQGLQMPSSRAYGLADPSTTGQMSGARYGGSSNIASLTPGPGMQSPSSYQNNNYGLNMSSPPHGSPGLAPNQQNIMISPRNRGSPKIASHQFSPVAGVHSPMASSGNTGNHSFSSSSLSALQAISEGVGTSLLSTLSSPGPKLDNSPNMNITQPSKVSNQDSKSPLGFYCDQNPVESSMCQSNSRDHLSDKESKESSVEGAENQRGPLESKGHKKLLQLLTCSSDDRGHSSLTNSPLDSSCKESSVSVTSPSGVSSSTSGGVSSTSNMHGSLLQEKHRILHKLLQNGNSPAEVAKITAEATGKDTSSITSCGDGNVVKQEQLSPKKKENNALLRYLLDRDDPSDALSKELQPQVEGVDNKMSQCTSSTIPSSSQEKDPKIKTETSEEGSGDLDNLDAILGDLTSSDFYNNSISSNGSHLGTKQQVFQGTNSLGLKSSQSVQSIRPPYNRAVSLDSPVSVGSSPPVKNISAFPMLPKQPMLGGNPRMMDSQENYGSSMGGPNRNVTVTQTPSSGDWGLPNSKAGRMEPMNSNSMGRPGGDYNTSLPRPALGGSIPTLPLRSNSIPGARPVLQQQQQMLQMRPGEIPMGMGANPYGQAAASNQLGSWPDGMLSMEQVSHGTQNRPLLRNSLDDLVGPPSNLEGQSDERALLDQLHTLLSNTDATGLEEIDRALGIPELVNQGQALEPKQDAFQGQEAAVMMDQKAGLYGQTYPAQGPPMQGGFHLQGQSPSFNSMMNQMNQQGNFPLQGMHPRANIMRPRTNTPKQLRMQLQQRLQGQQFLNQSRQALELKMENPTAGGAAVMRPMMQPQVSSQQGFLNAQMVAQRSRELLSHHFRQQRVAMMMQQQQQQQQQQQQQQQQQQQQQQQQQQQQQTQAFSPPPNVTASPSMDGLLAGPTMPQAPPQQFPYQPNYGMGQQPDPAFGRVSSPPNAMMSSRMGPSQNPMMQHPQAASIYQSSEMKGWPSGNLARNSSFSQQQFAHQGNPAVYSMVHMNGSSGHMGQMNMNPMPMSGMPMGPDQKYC
# [20] = target: Peroxisome proliferator-activated receptor gamma/Nuclear receptor coactivator 2 (Homo sapiens, UniProt P37231); assay: TR-FRET dose response biochemical High Throughput Screening assay for agonists of the steroid receptor coactivator 2 (SRC-2) recruitment by the peroxisome proliferator-activated receptor gamma (PPAR gamma): non-selective agonists. [Related pubchem assays: 1297, 1032 ]; format: functional
# [21] = target: T3, High affinity choline transporter 1 (Homo sapiens, UniProt Q9GZV3); assay: human choline transporter blockers, potency – cell-based, 5-point CRC, membrane potential dye, dose response (AID 504840); format: functional
# T3 sequence (Q9GZV3 whole entry): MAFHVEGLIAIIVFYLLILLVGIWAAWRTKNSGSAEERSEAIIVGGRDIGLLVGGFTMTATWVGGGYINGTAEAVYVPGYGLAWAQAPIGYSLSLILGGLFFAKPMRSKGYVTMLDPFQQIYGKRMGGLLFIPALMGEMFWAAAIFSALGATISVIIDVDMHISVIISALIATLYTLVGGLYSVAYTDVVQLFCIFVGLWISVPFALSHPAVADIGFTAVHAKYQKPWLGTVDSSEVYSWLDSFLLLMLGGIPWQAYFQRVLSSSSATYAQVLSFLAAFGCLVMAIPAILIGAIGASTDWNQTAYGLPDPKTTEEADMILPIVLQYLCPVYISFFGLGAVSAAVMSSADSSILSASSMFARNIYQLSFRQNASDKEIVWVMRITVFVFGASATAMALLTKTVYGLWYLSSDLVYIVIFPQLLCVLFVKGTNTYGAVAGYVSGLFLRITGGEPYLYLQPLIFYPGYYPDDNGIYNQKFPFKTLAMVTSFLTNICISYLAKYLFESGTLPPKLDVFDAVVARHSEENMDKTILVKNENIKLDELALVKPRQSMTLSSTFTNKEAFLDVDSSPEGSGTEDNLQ
# [22] = viability of uninfected HEp-2 cells – cell-based, HTS, cytotoxicity control for RSV inhibitor project, dose response (AID 2410); format: functional; settings: human respiratory syncytial virus
# [23] = activation of miR-122 Renilla sensor silencing – cell-based, Huh7 psiCHECK-miR122, Renilla luciferase, cherry-picked, dose response (AID 651956); format: functional;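 further: huh7 hepatoma cells stably carrying a psiCHECK-2 miR-122 sensor plasmid; renilla luciferase signal reporting endogenous miR-122 activity after 48 h compound exposure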
# [24] = target: T4, Carboxy-terminal domain RNA polymerase II polypeptide A small phosphatase 1 (Homo sapiens, UniProt Q9GZU7); assay: CTDSP1 inhibitors, concentration-response, biochemical, absorbance readout, ultra-high-throughput screen actives (AID 540297); format: functional
# T4 sequence (Q9GZU7 whole entry): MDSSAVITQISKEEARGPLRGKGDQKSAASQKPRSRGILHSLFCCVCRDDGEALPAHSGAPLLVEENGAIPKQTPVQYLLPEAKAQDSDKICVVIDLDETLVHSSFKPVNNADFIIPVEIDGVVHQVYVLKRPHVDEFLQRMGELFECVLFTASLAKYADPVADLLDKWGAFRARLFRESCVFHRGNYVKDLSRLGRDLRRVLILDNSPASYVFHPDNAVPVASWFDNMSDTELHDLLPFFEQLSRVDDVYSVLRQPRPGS
# Cytochrome P450 3A4 [25] = target: T2, Cytochrome P450 3A4; remark: listed apart in the source
# Cytochrome P450 2C9 = Cytochrome P450 2C9 (Homo sapiens, UniProt P11712)
# Chain of Cytochrome P450 2C9 (P11712 whole entry): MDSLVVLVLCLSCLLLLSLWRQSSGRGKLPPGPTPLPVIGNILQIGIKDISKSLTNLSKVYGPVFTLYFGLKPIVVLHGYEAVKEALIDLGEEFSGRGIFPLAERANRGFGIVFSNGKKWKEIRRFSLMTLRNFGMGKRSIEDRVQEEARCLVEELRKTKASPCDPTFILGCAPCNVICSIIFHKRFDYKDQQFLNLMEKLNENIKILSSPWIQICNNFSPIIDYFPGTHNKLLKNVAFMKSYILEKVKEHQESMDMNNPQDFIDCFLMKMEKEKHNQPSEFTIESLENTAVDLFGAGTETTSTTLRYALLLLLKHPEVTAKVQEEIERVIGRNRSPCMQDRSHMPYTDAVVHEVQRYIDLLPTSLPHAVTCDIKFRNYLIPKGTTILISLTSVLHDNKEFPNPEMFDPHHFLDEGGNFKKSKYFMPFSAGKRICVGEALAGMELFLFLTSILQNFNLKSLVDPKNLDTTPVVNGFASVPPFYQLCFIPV
# Cytochrome P450 2C19 = Cytochrome P450 2C19 (Homo sapiens, UniProt P33261); assay: Cytochrome panel assay with activity outcomes. Panel member name: p450-cyp2c19 Compounds with AC50 equal or less than 10 uM are considered active; format: functional
# Chain of Cytochrome P450 2C19 (P33261 whole entry): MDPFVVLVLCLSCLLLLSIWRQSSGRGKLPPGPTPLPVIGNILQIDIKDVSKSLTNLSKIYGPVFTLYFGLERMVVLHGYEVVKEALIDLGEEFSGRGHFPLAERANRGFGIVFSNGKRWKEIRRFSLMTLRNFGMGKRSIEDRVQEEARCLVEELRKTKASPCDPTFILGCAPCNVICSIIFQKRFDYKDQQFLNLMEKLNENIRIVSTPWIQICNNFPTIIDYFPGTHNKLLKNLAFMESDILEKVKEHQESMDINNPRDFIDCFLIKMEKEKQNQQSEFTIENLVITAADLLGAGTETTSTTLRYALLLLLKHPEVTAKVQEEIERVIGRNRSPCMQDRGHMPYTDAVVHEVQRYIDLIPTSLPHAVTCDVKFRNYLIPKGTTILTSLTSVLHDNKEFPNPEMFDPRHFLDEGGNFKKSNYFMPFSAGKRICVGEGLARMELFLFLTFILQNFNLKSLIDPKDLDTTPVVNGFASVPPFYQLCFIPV
# [26] = target: T5, Heat shock factor protein 1 (Mus musculus, UniProt P38532); assay: enhancement of HSF1-driven luciferase signal – cell-based, NIH3T3, luminescence, dose retest, confirmation (AID 435004); format: functional;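 further: stress induced by proteasome inhibitor MG132 added 30 min after compound; luciferase reporter driven by HSF1 response element in NIH3T3 cells; actives raise luminescence as potentiators of the MG132 stress response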
# T5 sequence (P38532 whole entry): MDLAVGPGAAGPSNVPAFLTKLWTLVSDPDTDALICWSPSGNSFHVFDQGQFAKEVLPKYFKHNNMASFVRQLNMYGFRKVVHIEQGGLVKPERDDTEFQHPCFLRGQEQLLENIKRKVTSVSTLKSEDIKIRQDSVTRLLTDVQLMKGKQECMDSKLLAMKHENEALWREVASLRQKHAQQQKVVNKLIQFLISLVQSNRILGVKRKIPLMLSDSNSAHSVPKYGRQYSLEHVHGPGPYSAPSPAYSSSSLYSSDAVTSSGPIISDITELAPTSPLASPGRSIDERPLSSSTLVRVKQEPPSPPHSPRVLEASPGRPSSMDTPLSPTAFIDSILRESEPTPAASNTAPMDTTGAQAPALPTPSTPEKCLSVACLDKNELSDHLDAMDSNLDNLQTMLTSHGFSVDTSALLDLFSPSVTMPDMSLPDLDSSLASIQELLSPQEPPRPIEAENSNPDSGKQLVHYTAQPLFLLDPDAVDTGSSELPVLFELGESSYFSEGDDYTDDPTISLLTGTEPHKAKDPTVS
compound,measurement,setting,value
COc1ccc2c(=O)c(-c3ccccc3C)c(C)oc2c1,AC50,Cytochrome P450 1A2,31.6 µM (inconclusive)
same,AC50,Cytochrome P450 2D6,inconclusive
same,AC50,Cytochrome P450 3A4 [1],inconclusive
COc1ccc(CCNc2cc(C)nc3c(-c4ccc(Cl)cc4)cnn23)cc1OC,AC50,[2],4.77 µM (active)
same,AC50,[3],24.1 µM (active)
CCn1c(SCC(=O)N2CCN(c3ccc(F)cc3)CC2)nc2ccccc2c1=O,AC50,[2],20.1 µM (active)
same,AC50,[3],58.9 µM (active)
Cc1ccc(C(=O)c2cnc3cc4c(cc3c2S(=O)(=O)c2ccccc2)OCCO4)cc1,EC50,HEK293 [4],> 20 µM (inactive)
same,EC50,[5],6.76 µM (active)
same,EC50,[6],9.9 µM (active)
same,IC50,HEK293 [7],14.7 µM (active)
same,EC50,H4,7.93 µM (active)
same,IC50,HEK293 [8],> 20 µM (inactive)
same,IC50,HEK293 [9],12.9 µM (inactive)
O=[As](O)(O)c1ccc(NCc2ccccc2)cc1,AC50,Cytochrome P450 2D6,inconclusive
Cc1ccc(NS(=O)(=O)c2ccc(-c3cnc(C4CC4)o3)cc2)c(C)c1,EC50,[10],4.97 µM (inconclusive)
same,EC50,BJ [11],1.2 µM (active)
same,EC50,[12],3.3 µM (active)
same,EC50,[13],0.502 µM (active)
same,EC50,BJ [14],0.985 µM (active)
same,EC50,BJ [15],0.847 µM (inconclusive)
same,EC50,[16],18.9 µM (inconclusive)
same,AC50,[2],< 0.16 µM (active)
same,IC50,[17],51.2 µM (inactive)
same,AC50,[3],5.23 µM (inconclusive)
COc1ccc(-c2nc(-c3cccs3)c(-c3cccs3)[nH]2)cc1O,EC50,[18],4.8 µM (active)
same,EC50,[19],79.6 µM (not active)
same,EC50,[20],4.79 µM (active)
same,IC50,[21],20 µM (active)
COc1ccc(-c2c(C)nn3c(N)c(-c4ccccc4)cnc23)cc1OC,CC50,[22],43.3 µM (active)
same,AC50,[2],11.9 µM (active)
same,AC50,[3],34.8 µM (active)
same,AC50,[23],6.96 µM (active)
O=C(NNC(=O)c1cc2cc3ccccc3nc2s1)c1cccc(C(F)(F)F)c1,IC50,[24],5.86 µM (active)
same,AC50,Cytochrome P450 3A4 [25],1.26 µM (inconclusive)
same,AC50,Cytochrome P450 2C9,inconclusive
CC(=O)NCCNc1nc(-c2ccccc2C)nc2ccccc12,AC50,Cytochrome P450 2C9,inconclusive
Cc1ccc(C)c(-n2nc3c4c(ccc3c2O)C(=O)c2ccccc2C4=O)c1,EC50,HEK293 [4],11.1 µM (active)
same,IC50,HEK293 [7],> 20 µM (inactive)
same,IC50,HEK293 [8],> 20 µM (inactive)
same,IC50,HEK293 [9],18 µM (inactive)
CN(C)Cc1c[nH]c2ncnc(O)c12,AC50,Cytochrome P450 2D6,inconclusive
Cc1noc(C)c1-c1cc(NC2CCNCC2)ncn1,AC50,Cytochrome P450 2C19,inconclusive
same,AC50,Cytochrome P450 1A2,0.126 µM (inconclusive)
same,AC50,Cytochrome P450 3A4 [1],inconclusive
same,AC50,Cytochrome P450 2C9,inconclusive
CCOC(=O)N1CCC(NS(=O)(=O)c2ccc3c(c2)C(C)(C)C(=O)N3C)CC1,EC50,[26],> 260 µM (inactive)
same,AC50,Cytochrome P450 2C19; read-out: AC50,11.2 µM (inconclusive)
same,AC50,Cytochrome P450 3A4 [25],15.8 µM (inconclusive)
same,AC50,Cytochrome P450 2C9,inconclusive
